# Measurements from patent US20090099218A1, “SYNTHESIS OF NOVEL TUBULIN POLYMERIZATION INHIBITORS: BENZOYLPHENYLUREA (BPU) SULFUR ANALOGS” (priority 2007, published 2009).
# Columns and labels:
# ASPC1 = experiment: MTT growth inhibition, pancreatic cell line ASPC1; type: cell-based; settings: MTT assay, 96 h treatment, average of three independent experiments
# Protocol: (§1) Eight of these analogs 6d, 6h, 6n, 6g, 7b, 7d, 8g, and 8h were tested for their cytotoxicity in seven pancreatic cell lines ASPC1, Panc1, Panc203, Panc430, Pane 1005, MiaPaca2, and HS766T using MTT assay. Cells were trypsinized, seeded at 5×10^3 cells/well in 96-well plate and allowed to grow for 24 hours before the treatment with exponential increasing concentrations of drugs in the presence of 10% FBS. After a 96-hours period of treatment, 20 μl of MTT solution (5 mg/ml in PBS) were added to each well, and the plates were then incubated for 3 hours at 37° C. Medium was then replaced with 100 μl of DMSO per well. Plates were shaken and the optical density was measured at 570 nm using a multiwell plate reader (Bio-Rad, Model 550, Bio-Rad Inc., Hercules, Calif.). Each experiment was performed in triplicate for each drug concentration and was carried out independently at least 3 times. The IC50 value was defined as the concentration needed for a 50% reduction in the absorbance calculated based on the survival curves. Response to drug treatment was assessed by standardizing treatment groups to untreated controls. Compounds activity was compared with compound 1.
# (§2) Table 2 (Growth Inhibition of Pancreatic Cancer Cell Lines by BPU and BPTU Analogues (IC50) a) compares the cytotoxicity of a series of new derivatives against a panel of seven pancreatic cancer cell lines, as determined by MTT assay. See, Mosmann, T., J. Immunol. Methods 65:55-63 (1983).
# Panc1 = experiment: MTT growth inhibition, pancreatic cell line Panc1; type: cell-based; settings: MTT assay, 96 h treatment, average of three independent experiments
# Protocol: as §1, §2
# Panc203 = experiment: MTT growth inhibition, pancreatic cell line Panc203; type: cell-based; settings: MTT assay, 96 h treatment, average of three independent experiments
# Protocol: as §1, §2
# Panc430 = experiment: MTT growth inhibition, pancreatic cell line Panc430; type: cell-based; settings: MTT assay, 96 h treatment; average of three independent experiments
# Protocol: as §1, §2
# Panc1005 = experiment: MTT growth inhibition, pancreatic cell line Panc1005; type: cell-based; settings: MTT assay, 96 h treatment, average of three independent experiments
# Protocol: as §1, §2
# Miapaca2 = experiment: MTT growth inhibition, pancreatic cell line Miapaca2; type: cell-based; settings: MTT assay, 96 h treatment, average of three independent experiments
# Protocol: as §1, §2
# HS766 = experiment: MTT growth inhibition, pancreatic cell line HS766; type: cell-based; settings: MTT assay, 96 h treatment, average of three independent experiments
# Protocol: as §1, §2
# CWR22R = experiment: MTT growth inhibition, prostate cancer cell line CWR22R; type: cell-based, human; settings: MTT assay, average of three independent experiments
# LnCaP = experiment: MTT growth inhibition, prostate cancer cell line LnCaP; type: cell-based, human; settings: MTT assay, average of three independent experiments
# Protocol: (§3) This MTT assay was carried using human prostate cancer cell lines CWR22R, LAPC-4 and LnCap using Promega cell titer 96 nonradioactive cell proliferation kits. Cells were trypsinized and centrifuged at 1000 rpm for 5 minutes and the supernatant was aspirated. Cells were resuspended with HBSS to a concentration of 10^6/ml. Cell suspension was diluted in serum containing medium to plate 2000 cells/well/0.2 ml. Cell suspension was transferred to sterile solution basin. Cells were plated using multichannel pipette set at 200 μl and incubated overnight for attachment. One plate was prepared for day 0 MTT assay as follows: 100 μl of media was removed from each well using multichannel pipette and 15 μl of MTT reagent was added. Plates were incubated at 37° C. for 4 hrs. […] of STOP solution was added to each well and incubated at room temperature for 1 hour. Absorbance was measured at 570 and 650 nm on plate reader. All the media from the remaining plates were carefully removed and the cells were treated with the media containing drug. MTT assays were done on days 0, 3, 5 and 7. In the preliminary screening […] BPU sulfur analogs 6l, 6h, 6n, 7d and 8h were screened and their activity was compared with compound 1.
# (§4) Compounds with significant inhibitory activity in pancreatic cancer cells were further evaluated against prostate cancer cell lines in the MTT assay, (Mosmann, T., J. Immunol. Methods 65:55-63 (1983)) and the results were compared to those for compound 1 (Table 3).
# LAPC-4 = experiment: MTT growth inhibition, prostate cancer cell line LAPC-4; type: cell-based, human; settings: MTT assay, average of three independent experiments
# Protocol: as §3, §4
# tubulin [1] = experiment: Inhibition of tubulin polymerization; type: biochemical; settings: Tubulin was at 10 μM; read-out: tubulin IC50 ± SD (inhibition of tubulin polymerization)
# Protocol: Briefly, tubulin polymerization was followed turbidimetrically at 350 nm in Beckman model DU7400 and DU7500 recording spectrophotometers equipped with electronic temperature controllers. […] Samples were pre-incubated for 15 min at 30° C. and chilled on ice. GTP (final concentration, 0.4 mmol/L) was added to each reaction mixture, and these were placed in cuvettes held at 0° C. Baselines were established, the temperature was raised to 30° C.
# [2] = system: seven pancreatic cell lines; experiment: MTT cytotoxicity, panel of seven pancreatic cancer cell lines; type: cell-based; settings: Pancreatic cancer cell, all seven pancreatic cell lines
# Protocol: as §1, §2
# [3] = system: pancreas cancer xenografts; experiment: In vivo growth inhibition of patient-derived pancreas cancer xenografts; design: species or system athymic nude mice
# Protocol: Six-week-old female athymic nude mice (Harlan) were used. The research protocol was approved by the Johns Hopkins University Animal Care and Use Committee, and animals were maintained in accordance to guidelines of the American Association of Laboratory Animal Care. Surgical non-diagnostic specimens from patients who had undergone surgery at the Johns Hopkins Hospital were implanted s.c. in one to two mice for each patient, with two small pieces per mouse (F1 generation). Tumors were grown to 1.5 cm^3 and then harvested, divided into small ˜3×3×3 mm pieces, and transplanted to another five mice, with two tumors per mouse (F2 generation). After a second growth passage, tumors were excised and propagated to cohorts of ≧20 mice. These groups constituted the F3, or treatment cohort. Tumors from this third mouse-to-mouse passage were allowed to grow to ˜200 mm3, at which time mice were randomized into three treatment groups, with five to six mice (10 evaluable tumors) in each group: control (vehicle), 6n (50 mg/kg i.p. twice per week), and 7d (50 mg/kg i.p. twice per week). Docetaxel treatment was given to selected groups at a dose of 30 mg/kg i.p. once a week for 2 weeks. Mice were monitored daily for signs of toxicity and were weighed thrice per week. Tumor size was evaluated twice per week by caliper measurements using the following formula: tumor volume=[length×width^2]/2. Relative tumor growth inhibition was calculated by relative tumor growth of treated mice divided by relative tumor growth of control mice from the onset of therapy (T/C).
# To assess the treatment effect, a hierarchical linear regression model was used with random intercepts and fixed slopes. Based on the results of exploratory plots, the assumption of fixed effects for slopes seemed reasonable. This model allowed for mouse effects to be nested within patient effects so that the hierarchical structure is fully accounted for. Specifically, the following linear regression model was fitted: log(γiJt)=a1ijtimeijt+b2jtimeijt×trtij+βtime^2ijt+eijt where j indexes patient, i indexes mouse, and t indexes time; yijt is the percentage change in tumor volume (compared with day 0) in mouse i, which is a xenograft for patient j at time t; and trtij is treatment (1=treated, 0=control) received by mouse i, which is a xenograft for patient j. […] An intercept and main effect of treatment were not included in the model that makes two assumptions: (a) at time 0, the change from baseline is 0 (which is empirically true), and (b) at baseline, the treated and untreated curves intersect. The model was fit using Win-Bugs software that estimates models using a Markov chain Monte Carlo estimation procedure. A burn-in of 10,000 iterations was done, and then the chain was run for an additional 20,000 iterations, of which every 10th iteration was saved for inference. Several chains were run with different starting values to ensure convergence. No convergence issues arose. The fitted model was used to make inferences with respect to the treatment effect and to create fitted regression lines (rescaled on the Y-axis for clearer interpretation). Point estimates of variables of interest (e.g., expected difference in tumor volume between treated and control at 28 days) and 95% credible intervals were based on the mean of posterior distributions and the 2.5th and 97.5th quantiles of the posterior distribution, respectively. The comparisons between means and proportions obtained from the biological studies were done using Student's t-test and χ^2 method, respectively. ANOVA was used when three or more variables were compared.
# Tumors from nine cases of pancreatic cancer were used to establish xenografts in nude mice, and the animals were treated with either vehicle, 6n, or 7d (FIG. 36A). The level of efficacy varied both between drugs and within cases treated with each drug. FIG. 37 provides an integrated summary of all data points obtained in the studies. […]
# tubulin [4] = experiment: Inhibition of [3H]colchicine binding; settings: Tubulin 1 μM; [3H]colchicine and inhibitor at 5 μM
compound,measurement,setting,value
Nc1ccccc1OC=NOC=Nc1ccc(Sc2ncccn2)cc1 [Compound 7b],IC50,"ASPC1; Homo sapiens, ASPC1",6 µM
same,IC50,"Panc1; Homo sapiens, PANC-1",7.5 µM
same,IC50,"Panc203; Homo sapiens, Panc203",5.5 µM
same,IC50,Panc430,6.5 µM
same,IC50,"Panc1005; Homo sapiens, Panc1005",> 10 µM
same,IC50,"Miapaca2; Homo sapiens, MIA PaCa-2",7 µM
same,IC50,"HS766; Homo sapiens, Hs 766",8 µM
Nc1ccccc1C(=O)NC(=O)Nc1ccc(Oc2nccc(Br)n2)cc1 [Compound 7c],IC50,ASPC1,5.2 µM
same,IC50,Panc1,3.5 µM
same,IC50,Panc203,> 10 µM
same,IC50,Panc430,> 10 µM
same,IC50,Panc1005,> 10 µM
same,IC50,Miapaca2,0.92 µM
same,IC50,HS766,0.27 µM
same,IC50,CWR22R,2 µM
same,IC50,LnCaP,0.75 µM
same,IC50,LAPC-4,0.75 µM
same,IC50,tubulin [1],36 ± 0.7 µM
O=[N+]([O-])c1ccccc1OC=NOC=Nc1ccc([S+]([O-])c2ncc(Br)cn2)cc1 (stereo not shown) [Compound 8g],IC50,"ASPC1; Homo sapiens, ASPC1",2.5 µM
same,IC50,"Panc1; Homo sapiens, PANC-1",6.5 µM
same,IC50,"Panc203; Homo sapiens, Panc203",5.5 µM
same,IC50,Panc430,5.5 µM
same,IC50,"Panc1005; Homo sapiens, Panc1005",5.5 µM
same,IC50,"Miapaca2; Homo sapiens, MIA PaCa-2",8 µM
same,IC50,"HS766; Homo sapiens, Hs 766",6.5 µM
same,IC50,[2],2.5 to 8 µM
"O=C(NC(=O)c1ccccc1[N+](=O)[O-])Nc1ccc(S(=O)(=O)c2ncc(Br)cn2)cc1 [Compound 8h, 1-[4-(5-Bromopyrimidine-2-sulfonyl)phenyl]-3-(2-nitrobenzoyl)-urea]",IC50,"ASPC1; Homo sapiens, ASPC1",> 10 µM
same,IC50,"Panc1; Homo sapiens, PANC-1",> 10 µM
same,IC50,"Panc203; Homo sapiens, Panc203",> 10 µM
same,IC50,Panc430,> 10 µM
same,IC50,"Panc1005; Homo sapiens, Panc1005",> 10 µM
same,IC50,"Miapaca2; Homo sapiens, MIA PaCa-2",6.1 µM
same,IC50,"HS766; Homo sapiens, Hs 766",> 10 µM
same,IC50,"CWR22R; Homo sapiens, 22Rv1",> 10 µM
same,IC50,"LnCaP; Homo sapiens, LNCaP",0.5 µM
same,IC50,"LAPC-4; Homo sapiens, LAPC4",4 µM
"CC(=O)O[C@@]12CO[C@@H]1C[C@H](O)[C@@]1(C)C(=O)[C@H](O)C3=C(C)[C@@H](OC(=O)[C@H](O)[C@@H](NC(=O)OC(C)(C)C)c4ccccc4)C[C@@](O)([C@@H](OC(=O)c4ccccc4)[C@H]21)C3(C)C [Docetaxel, docetaxel, reference compound]",efficacy in case 194,[3]; case with the greatest expression of MAPT,inactive
same,efficacy in case 185,[3]; docetaxel 30 mg/kg i.p. once a week for 2 weeks,lower efficacy than 6n
same,efficacy in case 215,"[3]; low MAPT-expressing case, docetaxel 30 mg/kg i.p. once a week for 2 weeks",particularly efficacious
"COc1cc([C@@H]2c3cc4c(cc3[C@H](O)[C@H]3COC(=O)[C@H]23)OCO4)cc(OC)c1OC [podophyllotoxin, reference compound]","colchicine binding (% ± SD), inhibition of [3H]colchicine binding",tubulin [4],77 ± 8%
